# Test results taken from patent publication US5281603A, “Angiotensin II receptor blocking 2,3,6 substituted quinazolinones” (American Cyanamid Company, priority 1993, dated 1994).
# Target: T1, Angiotensin II Receptor (Bos taurus, UniProt P25104)
# T1 construct: The brownish tissue forming the adrenal cortex is scraped off and finely minced with scissors before homogenization; from tissue; host or cells: beef adrenal cortex, microsomal membranes (100,000×g pellet)
# T1 sequence (P25104 1-359): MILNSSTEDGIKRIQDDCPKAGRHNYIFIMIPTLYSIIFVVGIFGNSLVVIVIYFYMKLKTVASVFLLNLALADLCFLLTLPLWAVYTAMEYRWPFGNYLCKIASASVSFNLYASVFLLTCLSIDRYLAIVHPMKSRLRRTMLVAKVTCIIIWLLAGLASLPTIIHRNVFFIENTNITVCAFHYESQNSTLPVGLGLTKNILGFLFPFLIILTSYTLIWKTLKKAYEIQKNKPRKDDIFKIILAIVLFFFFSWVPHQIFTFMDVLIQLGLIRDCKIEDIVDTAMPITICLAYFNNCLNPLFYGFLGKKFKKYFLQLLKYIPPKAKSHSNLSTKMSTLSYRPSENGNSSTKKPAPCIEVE
# Experiment: Angiotensin II Receptor Binding: displacement of [^125 I](Sar^1,Ile^8)AngII from beef adrenal cortex membranes
# Design: species or system beef (bovine)
# Conditions: [^125 I](Sar^1,Ile^8)AngII, beef adrenal membranes, 60 min, room temperature
# Excerpt: Beef adrenals are obtained from a local slaughter house (Maxwell-Cohen). [^125 I](Sar^1,Ile^8)AngII, S.A. 2200 Ci/mmole, is purchased from Dupont (NEN®, Boston, Mass.). All unlabeled AngII analogs, Dimethylsulfoxide (DMSO), nucleotides, bovine serum albumin (BSA) are purchased from Sigma Chemical Co., St. Louis, Mo. U.S.A.
# Approximately sixteen (16) to twenty (20) beef adrenal glands are processed as follows: fresh adrenal glands received on crushed ice are cleaned of fatty tissues and the tough membranes encapsulating the glands are removed and discarded. The brownish tissue forming the adrenal cortex is scraped off and finely minced with scissors before homogenization. Care is taken to avoid contamination with medullary tissue during dissection. The scraped cortices are suspended in twenty volumes of an ice-cold buffer medium consisting of 10 mM Tris.HCl (pH 7.4 at 22° C.) and containing 1.0 mM EDTA and 0.2M sucrose. Unless otherwise indicated, all subsequent operations are done at 4° C. […] The homogenate is centrifuged first at low speed (3,000×g) for 10 min. […] This P2 pellet is discarded and the liquid phase is carefully decanted off in clean centrifuge tubes and recentrifuged at high speed (100,000×g) for 60 min. The translucent final pellet is harvested and combined in a small volume (20-50.0 ml) of 50.0 mM Tris.HCl buffer, pH 7.2. […] The pelleted membrane is reconstituted in 50.0 mM Tris.HCl buffer containing 0.1 mM of phenylmethylsulfonyl fluoride (PMSF) to give approximately a protein concentration of 2.5 mg per ml of tissue suspension. The membrane preparation is finally aliquoted in 1.0 ml volumes and stored at -70° C. until use in the binding assays. […]
# The wells are left undisturbed for 60 min. at room temperature. […] The filters are removed from the filter grid and counted in a Parkard® Cobra Gamma Counter for 1 min. […] The binding data are analyzed by the non-linear interactive "LUNDON-1" program (LUNDON SOFTWARE Inc., Cleveland, Ohio U.S.A.).
row,IC50 [nM],SMILES
1,180,CCCCc1nc2ccc(C3=NN[C@H]4C(=O)N(C)C(=O)[C@@H]34)cc2c(=O)n1Cc1ccc(-c2ccccc2-c2nnn[nH]2)cc1 (relative stereo) [Example 7]
2,880,"CCCCc1nc2ccc([C@@]3(C)NN[C@@H]4C(=O)N(C)C(=O)[C@@H]43)cc2c(=O)n1Cc1ccc(-c2ccccc2-c2nnn[nH]2)cc1 (relative stereo) [Example 10, (3-alpha,3aalpha,6aalpha)-3-[2-butyl-3,4-dihydro-4-oxo-3-[[2'-(1H-tetrazol-5-yl)-[1,1'-biphenyl]-4-yl]methyl]-6-quinazolinyl]-2,3,3a,6a-tetrahydro-3,5-dimethyl-pyrrolo[3,4-c]pyrazole-4,6(1H,5H)-dione]"
